Test results published in PMC8991960, “A Bivalent Activatable Fluorescent Probe for Screening and Intravital Imaging of Chemotherapy‐Induced Cancer Cell Death” (Angewandte Chemie (International Ed. in English), 2021).

System: MMTV-PyMT mammary gland tumours
Test: Intravital imaging of cisplatin-induced apoptosis in breast cancer model
Assay type: in vivo, mouse
Conditions: cisplatin 10 mg kg-1 i.p., Apotracker Red 650 ng i.v. 72 h later, two-photon microscopy, MMTV-PyMT;ACTB-ECFP mice
Excerpt: Optical intravital imaging is increasingly used for the preclinical evaluation of anticancer drugs in vivo. Although imaging modalities like computed tomography, positron emission tomography and magnetic resonance imaging can help to visualise whole intact organs in a non‐invasive manner,[26] they lack the spatiotemporal resolution needed to study dynamic interactions between individual tumour and stromal cells. This feature is critical to understand the mechanism of action of anticancer drugs and how they can affect interactions between cancer cells and immune cells in the tumour microenvironment.[27] Intravital imaging heavily relies on the acquisition of fluorescence signals using multiphoton microscopy, which provides cellular resolution with deep tissue penetration (≈500 μm) and minimal photodamage.[28] […] First, we analysed the chemical stability of Apotracker Red for in vivo studies by incubating the probe in mouse serum. […] When primary tumours measured around 0.5–1 cm in diameter, we administered cisplatin intraperitoneally (10 mg kg^−1). […]
were centrifuged (300 g, 5 min, r.t.), washed once with PBS before addition of 0.05% Trypsin, 0.02% ethylenediaminetetraacetic acid (EDTA) in Hank’s balanced salt solution (HBSS) and incubation at 37°C for 5 min. […] Histograms and mean fluorescence intensities of apoptotic cells were measured on a 5L LSR flow cytometer under the following […]

In the case of `N.N.[Cl][Pt][Cl]` [cisplatin], the “Apotracker Red fluorescence in tumours of treated mice (intravital imaging)” value is reported as “strong red fluorescent signals indicating cancer cell death induced by the drug”.
